Laboratory results taken from paper PMC12349723, “Computationally accelerated identification of P-glycoprotein inhibitors” (PLOS One, 2025).
“And” between values parts separate entries of the source, which are not always exact repeats. Identical values can stand only once. Like-named read-outs stand apart in the source and are kept apart here.

Legend:
[1] = test system: DU145 cells; test: MTT viability assay, non-P-gp overexpressing DU145 parental line, with or without PTX; type: cell-based, human; settings: for Sensitization of DU145 cells to PTX: 15 µM compound + PTX vs PTX alone; for % Survival, Mean, 15 µM compound + 500 nM PTX / % Survival, 15 µM Compound alone (individual samples) / % Survival, 15 µM compound + 500 nM PTX (individual samples) / viability at 15 µM: DU145 cells, 48 h; for viability at 15 µM: Homo sapiens, DU-145, 48 h
Procedure: The chemotherapeutic sensitive DU145 human prostate cancer cells and the multidrug resistant sub-line, DU145-TXR, were generous gifts from Dr. Evan Keller (University of Michigan, Ann Arbor, MI). The MDR, P-gp overexpressing DU145-TXR cells were maintained under positive selection pressure by supplementing complete medium with 10 nM paclitaxel (Acros Organics, NJ). […] The MDR, P-gp overexpressing A2780-ADR cell line was maintained under positive selection pressure by supplementing complete medium with 100 nM doxorubicin (Fisher Scientific, NJ). The non-cancerous HFL1 (human lung fibroblast) cell line cell line was a generous gift from Dr. Robert Harrod (Southern Methodist University, Dallas, TX) and was maintained in complete F12K media consisting of F12K with 10% fetal bovine serum, 100 U/mL penicillin, and 100 µg/mL streptomycin (Gibco). Flasks and 96 well plates that were used with the non-cancerous line HFL1 were pre-treated with 0.1 mg/ml Collagen Type 1 (Gibco) and rinsed with PBS (Fisher).
Culture of the DU145, DU145-TXR, and HFL1 cell lines was performed as described in [8]. Culture of the A2780 and A2780-ADR cell lines was performed as described in [9]. MTT assays were performed as described in [8] with minor modifications. […] Data represent the mean of two separate experiments, with n = 3 samples per experiment (n = 6 total) (S4 Table).
MTT assays measure the reduction of yellow, water soluble 3-(4,5-dimethylthiazol-2-yl)-2,5-diphenyltetrazolium bromide (MTT) to blue, insoluble formazan crystals by cellular reductase processes in living cells. Cells were trypsinized from monolayers and seeded in complete medium in 96 well plates. Cancerous cell lines (DU145, DU145-TXR, A2780, A2780-ADR) were seeded at 3,000 cells per well in complete RPMI medium. The non-cancerous HFL1 line was seeded at 4,000 cells per well in complete F12K medium, in collagen-treated plates (Collagen Type 1, Gibco). Cells were incubated with experimental compounds for 48 hours at 37 °C and 5% CO2 in a humidified incubator. At 48 hours, MTT was added (20 µL/well of 5 mg/mL MTT in PBS) to each well. After incubation for 4 hours, the media was removed, and the formazan crystals were dissolved in 100 µL DMSO per well. Plates containing the semi-adherent A2780 or A2780-ADR lines were spun at 1400 rpm for 3 minutes prior to aspiration of media, and the addition of DMSO. Plates were shaken for 10 minutes at 500 rpm on an Orbital shaker (LabDoctor from MidSci, St Louis, MO). The absorbance was measured at 570 nm using a Bio-Tek Cytation 5 (Bio-Tek, Winooski, VT). The measured absorbance value was correlated with the number of metabolically active cells in that well, corrected for absorbance of media. The percent of cell viability (termed ‘survival’ here) was calculated as a percentage of survival of the control condition, which refers to vehicle-treated (DMSO as vehicle) cells, or vehicle-and-chemotherapeutic-treated cells, if testing a compound’s ability to re-sensitize cells to a chemotherapeutic. Percent survival was calculated using the following equation:
% Survival=100 × absorbance of experimental cells/mean absorbance of control treated cells
For DU145-TXR, DU145, HFL1 and A2780 cells – data are the mean ± one standard deviation, 8 samples per compound, from at least two independent trials per compound. […] For A2780-ADR cells, data are the mean ± one standard deviation with 12 samples per compound, from at least two independent trials per compound.
67 compounds were chosen from computational screens for testing in vitro. A) DU145-TXR cells were exposed to 15 µM experimental compound with or without 500 nM of the P-gp substrate and chemotherapeutic paclitaxel (PTX).

[2] = target: T1, P-gp (Homo sapiens, UniProt P08183); test: LC-MS/MS intracellular accumulation assay with or without tariquidar (P-gp transport substrate test) in DU145-TXR cells; type: in vitro ADME; settings: for P-gp transport substrate assessment: 5 µM compound with or without 500 nM tariquidar, LC-MS/MS; for Significance of accumulation with tariquidar, Trial 1 / Significance of accumulation with tariquidar, Trial 2: significant difference = likely P-gp transport substrate
T1 construct: The MDR, P-gp overexpressing DU145-TXR cells were maintained under positive selection pressure; endogenous in cells; host or cells: DU145-TXR (paclitaxel-resistant sub-line of DU145 human prostate cancer cells)
T1 sequence (P08183 whole entry): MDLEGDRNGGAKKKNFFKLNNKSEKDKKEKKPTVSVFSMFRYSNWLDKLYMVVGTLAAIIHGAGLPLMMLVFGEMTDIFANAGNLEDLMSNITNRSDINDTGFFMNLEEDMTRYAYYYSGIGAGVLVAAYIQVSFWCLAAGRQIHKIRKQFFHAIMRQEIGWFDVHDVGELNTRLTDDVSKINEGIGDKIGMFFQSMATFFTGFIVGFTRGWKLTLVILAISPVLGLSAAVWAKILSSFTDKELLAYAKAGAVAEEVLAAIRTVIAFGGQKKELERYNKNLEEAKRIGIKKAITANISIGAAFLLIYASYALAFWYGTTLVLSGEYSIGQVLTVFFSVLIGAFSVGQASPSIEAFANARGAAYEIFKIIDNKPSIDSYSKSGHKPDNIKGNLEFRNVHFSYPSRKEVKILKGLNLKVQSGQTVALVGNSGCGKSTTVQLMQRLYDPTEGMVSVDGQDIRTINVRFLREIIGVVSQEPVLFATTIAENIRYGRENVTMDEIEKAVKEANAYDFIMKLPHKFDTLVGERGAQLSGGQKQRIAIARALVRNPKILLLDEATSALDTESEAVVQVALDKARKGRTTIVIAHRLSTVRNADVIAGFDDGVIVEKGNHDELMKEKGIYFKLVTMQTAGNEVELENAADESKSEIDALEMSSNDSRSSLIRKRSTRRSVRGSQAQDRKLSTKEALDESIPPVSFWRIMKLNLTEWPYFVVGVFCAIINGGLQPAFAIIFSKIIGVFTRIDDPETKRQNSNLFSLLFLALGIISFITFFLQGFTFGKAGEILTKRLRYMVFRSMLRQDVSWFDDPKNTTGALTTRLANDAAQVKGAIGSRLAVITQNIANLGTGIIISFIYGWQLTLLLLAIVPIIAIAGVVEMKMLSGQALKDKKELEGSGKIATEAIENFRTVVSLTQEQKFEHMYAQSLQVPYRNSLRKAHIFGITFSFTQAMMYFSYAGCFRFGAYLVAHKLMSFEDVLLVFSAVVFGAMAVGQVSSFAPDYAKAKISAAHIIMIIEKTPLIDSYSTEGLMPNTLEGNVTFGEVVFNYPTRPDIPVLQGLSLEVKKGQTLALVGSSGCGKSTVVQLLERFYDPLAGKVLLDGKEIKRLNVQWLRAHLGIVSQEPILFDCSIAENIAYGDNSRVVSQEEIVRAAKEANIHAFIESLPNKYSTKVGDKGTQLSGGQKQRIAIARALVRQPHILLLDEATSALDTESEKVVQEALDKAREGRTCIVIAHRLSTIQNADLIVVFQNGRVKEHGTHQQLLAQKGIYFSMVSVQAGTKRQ
Procedure: DU145-TXR cells were seeded at 350,000 cells per well in 6-well plates in complete RPMI medium. […] A full sample of DAU was also prepared for quantitative analysis. […] Media was removed with a glass vacuum aspirator. Cells were re-suspended and washed in 2mL of ice-cold Hank’s Balanced Salt Solution (HBSS, Gibco), and spun again at 2400 rpm. Cell lysates were diluted in 600 µL of ice-cold HBSS, flash-frozen in liquid nitrogen, and stored at −80 °C until analysis. LC-MS/MS intracellular accumulation assays were performed in collaboration with the Pharmacology Core at the University of Texas Southwestern Medical Center (UTSW). […] This method allowed us to quantify the change – if any – in the relative amount of compound present in the samples when TQR was added. An increase in the relative amount of compound indicates enhanced intracellular retention that compound. […] The “Internal Standard” (IS) is a known substance added in a constant amount to each sample. The “Peak Area”, expressed as “counts”, describes the number of MS/MS spectra from the experimental compound and serves as a measure of its relative abundance. […] These values allow a comparison of the relative abundance of compound between the “- TQR” and “+ TQR” samples, and to test for statistically significant differences. LC-MS/MS quantification was performed as follows. Cell lysate was aliquoted into Eppendorf tubes. In contrast to [9], blank cell lysates were not spiked with varying concentrations of each compound to create a standard curve, since compound amounts were normalized to abundance of the internal standard. […] The supernatant was then transferred to an HPCL vial, and subsequently analyzed using LC-MS/MS using a Sciex 4000QTRAP mass spectrometer coupled to a Shimadzu Prominence LC. […] The column flow rate was 1.5 ml/min using an Agilent C18 XDB, 5 micron packing 50 × 4.6 mm column. […] A BSA standard curve was then prepared in water and mixed using the same ratio. […] The ratio of Analyte to Internal Standard was normalized to the lysate content for each individual sample. […] Statistical significance was determined using a Student’s T Test in GraphPad Prism. We aimed to identify P-gp inhibitors that are not transport substrates of the pump itself. […] To test these predictions in vitro, liquid chromatography with tandem mass spectrometry (LC-MS/MS) was used to assess the intracellular accumulation of experimental compounds as described in [9]. […] The relative intracellular accumulation of each experimental compound was then assessed using LC-MS/MS. […] The P-gp substrate and chemotherapeutic daunorubicin (DAU) was used as a positive control for P-gp-mediated transport.

[3] = single samples, 2 trials x 4 samples
[4] = mean of 8 samples, read-out: % Survival, Mean, 15 µM Compound alone
[5] = DU145-TXR, 5 µM compound, 2.5 h, with 500 nM tariquidar, mean ± SD, triplicate
[6] = DU145-TXR, 5 µM compound, 2.5 h, without tariquidar, mean ± SD, triplicate

SMILES | Sensitization of DU145 cells to PTX [1] | % Survival, Mean, 15 µM compound + 500 nM PTX ([1]; mean of 8 samples) | % Survival, 15 µM Compound alone (individual samples) [1, 3] | % Survival, 15 µM compound + 500 nM PTX (individual samples) [1, 3] | viability at 15 µM [1, 4] | P-gp transport substrate assessment ([2]; DU145-TXR, 2.5 h) | Intracellular accumulation (normalized ratio of compound to internal standard), Trial 1, + TQR [2, 5] | Intracellular accumulation (normalized ratio of compound to internal standard), Trial 2, + TQR [2, 5] | Intracellular accumulation (normalized ratio of compound to internal standard), Trial 1, - TQR [2, 6] | Intracellular accumulation (normalized ratio of compound to internal standard), Trial 2, - TQR [2, 6] | P (- TQR vs + TQR), Trial 1 ([2]; Student's T test of the mean) | P (- TQR vs + TQR), Trial 2 ([2]; Student's T test of the mean) | Significance of accumulation with tariquidar, Trial 1 [2] | Significance of accumulation with tariquidar, Trial 2 [2] | viability at 15 µM ([1]; single samples, 2 trials x 4 samples, read-out: % Survival, 15 µM Compound alone (individual samples)) | Intracellular accumulation (normalized ratio of compound to internal standard), Trial 3, + TQR [2, 5] | Intracellular accumulation (normalized ratio of compound to internal standard), Trial 3, - TQR [2, 6] | P (- TQR vs + TQR), Trial 3 ([2]; Student's T test of the mean)
O=C(c1nc(-c2ccc3cc[nH]c3c2)no1)N1CCN(c2nsc3ccccc23)CC1 [Compound 70, O=C(N1CCN(CC1)c1nsc2ccccc12)c1nc(no1)-c1ccc2cc[nH]c2c1] | insignificantly sensitize DU145 cells to PTX | 30.5% | 88% | 32% and 30% | 84.7% | unlikely to be transport substrates of P-gp | 0.93 ± 0.07 | 0.55 ± 0.15 | 0.93 ± 0.15 | 0.56 ± 0.11 | > 1 | 0.9 | N.S. (P > 0.05 = not significant (N.S.)) | N.S. (P > 0.05 = not significant (N.S.)) |  |  |  | 
O=C(c1nc(-c2ccccn2)no1)N1CCN(c2nsc3ccccc23)CC1 [Compound 124, O=C(N1CCN(CC1)c1nsc2ccccc12)c1nc(no1)-c1ccccn1] | insignificantly sensitize DU145 cells to PTX | 20.9% | 85% | 17% and 26% | 76.9% | potential P-gp transport substrates | 0.061 ± 0.011 | 0.055 ± 0.009 | 0.006 ± 0.001 | 0.007 ± 0.002 | 0.001 | 0.0008 | ** (P < 0.01 = **) | *** (P < 0.001 = ***) |  |  |  | 
Cc1onc(-c2ccccc2)c1-c1nnc(Cn2cnc3ccccc3c2=O)o1 [Compound 111, Cc1onc(c1-c1nnc(Cn2cnc3ccccc3c2=O)o1)-c1ccccc1] | insignificantly sensitize DU145 cells to PTX | 19.3% | 72% |  | 73.5% | unlikely to be transport substrates of P-gp | 0.013 ± 0.004 | 0.013 ± 0.001 | 0.012 ± 0.002 | 0.011 ± 0.002 | 0.7 | 0.2 | N.S. (P > 0.05 = not significant (N.S.)) | N.S. (P > 0.05 = not significant (N.S.)) | 80% |  |  | 
O=C(NCc1cccc(F)c1)c1nnn2c1Sc1c(C(=O)NCc3cccc(F)c3)nnn1CC2 [Compound 122, Fc1cccc(CNC(=O)c2nnn3CCn4nnc(C(=O)NCc5cccc(F)c5)c4Sc23)c1] | insignificantly sensitize DU145 cells to PTX | 19.4% |  |  | 60.9% | potential P-gp transport substrates | 0.146 ± 0.018 | 0.209 ± 0.014 | 0.049 ± 0.005 | 0.058 ± 0.018 | 0.0008 | 0.0003 | *** (P < 0.001 = ***) | *** (P < 0.001 = ***) |  |  |  | 
CCN1CCN(Cc2c(C(=O)N/N=C3/C(=O)N(C)c4ccccc43)nnn2-c2nonc2N)CC1 [Compound 61, CCN1CCN(Cc2c(nnn2-c2nonc2N)C(=O)N\N=C2\C(=O)N(C)c3ccccc23)CC1] |  | 14.3% |  |  | 55.6% |  | 0.076 ± 0.001 | 0.027 ± 0.011 | 0.023 ± 0.002 | 0.016 ± 0.006 | 2 x 10^-6 | 0.2 |  |  |  | 0.126 ± 0.010 | 0.021 ± 0.004 | 0.0001
